Laboratory results as given in patent US10975068B2, “6-aminopyridin-3-yl thiazoles as modulators of RORγT” (Janssen Pharmaceutica NV, priority 2016, dated 2021).
Like-named read-outs stand apart in the source and are kept apart here.

Key:
[1] = molecular target: human RORγt ligand binding domain (RORγt LBD) (Homo sapiens (Human), UniProt P51449); assay: RORγt ThermoFluor® assay (thermal shift binding); conditions: read-out: ThermoFluor® Assay, Kd
Summary of the method: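 Binding was inferred from thermal stabilisation (ΔTm) of the E. coli-expressed RORγt LBD (0.065 mg/mL), monitored by 1,8-ANS (60 μM) emission at 500 nm during a 1 °C/min ramp. Buffer was Hepes 100 mM pH 7.0 with NaCl, GSH and Tween-20.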

full-length human RORγt = full-length human RORγt (Homo sapiens (Human), UniProt P51449); assay: RORγt (full-length human) reporter assay, Conditions B or C; type: cell-based; conditions: for RORγt (FL) Reporter Assay B or C, % inhibition (value marked *): marked *: footnote not given; for inhibition at 3 µM: at 3 μM compound concentration; for RORγt (FL) Reporter Assay B or C, % inhibition (value marked ***): marked ***: footnote not given
Chain of full-length human RORγt (P51449 other isoform, or with tags, fused parts or gaps): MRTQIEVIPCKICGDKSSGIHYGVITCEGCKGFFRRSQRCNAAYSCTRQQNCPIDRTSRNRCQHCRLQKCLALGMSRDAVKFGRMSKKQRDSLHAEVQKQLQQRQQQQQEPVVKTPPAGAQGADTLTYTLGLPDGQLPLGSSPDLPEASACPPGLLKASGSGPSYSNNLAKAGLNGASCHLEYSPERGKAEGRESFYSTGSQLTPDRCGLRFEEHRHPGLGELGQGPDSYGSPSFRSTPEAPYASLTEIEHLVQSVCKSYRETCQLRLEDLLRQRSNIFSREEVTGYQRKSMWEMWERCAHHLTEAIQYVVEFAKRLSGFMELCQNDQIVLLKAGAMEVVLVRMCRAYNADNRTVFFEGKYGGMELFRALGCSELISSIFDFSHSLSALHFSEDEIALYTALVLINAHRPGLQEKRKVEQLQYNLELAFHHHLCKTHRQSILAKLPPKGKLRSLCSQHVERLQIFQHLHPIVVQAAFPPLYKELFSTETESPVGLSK
Summary of the method: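 Readout is dual luciferase: firefly (GAL4-driven) normalized to DMSO-only and saturating-reference controls, then to CMV-Renilla. Full-length human RORγt fused to GAL4-DBD was transiently expressed in HEK293T; compound exposure ran overnight (16-20 h) starting 4-6 h after transfection, final FBS 1.3%, DMSO 0.1%.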

[2] = Conditions B or C, read-out: RORγt (FL) Reporter Assay B or C, IC50
[3] = read-out: RORγt (FL) Reporter Assay B or C, % inhibition
[4] = read-out: RORγt (FL) Reporter Assay B or C, IC50

Chain of human RORγt ligand binding domain (RORγt LBD) (P51449 other isoform, or with tags, fused parts or gaps): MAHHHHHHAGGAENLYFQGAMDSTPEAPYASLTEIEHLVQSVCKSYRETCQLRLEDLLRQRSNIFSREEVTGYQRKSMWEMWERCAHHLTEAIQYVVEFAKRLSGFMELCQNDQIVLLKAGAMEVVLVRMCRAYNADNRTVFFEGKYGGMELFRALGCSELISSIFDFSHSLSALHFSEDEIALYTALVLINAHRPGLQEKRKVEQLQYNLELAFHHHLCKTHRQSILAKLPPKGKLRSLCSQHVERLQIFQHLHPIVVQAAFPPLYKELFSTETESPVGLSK

| SMILES | Kd [1] [µM] | IC50 (full-length human RORγt; [2]) [µM] | inhibition at 3 µM (full-length human RORγt; [3]) [%] | IC50 (full-length human RORγt; [4]) [µM] | other results |
| --- | --- | --- | --- | --- | --- |
| C[C@H]1CCCN1C(=O)c1nc(C(=O)N[C@H]2C[C@H](S(C)(=O)=O)C2)sc1-c1cnc(NC2CCCC2)cc1C(F)F [Example 72, 5-(6-(Cyclopentylamino)-4-(difluoromethyl)pyridin-3-yl)-4-((S)-2-methylpyrrolidine-1-carbonyl)-N-((1r,3r)-3-(methylsulfonyl)cyclobutyl)thiazole-2-carboxamide] | 0.035 | 0.089 |  |  | RORγt (FL) Reporter Assay B or C, % inhibition (value marked *) (full-length human RORγt; Conditions B or C): 104* % |
| C[C@H]1CCCN1C(=O)c1nc(C(=O)NCC(C)(C)O)sc1-c1cnc(N[C@H](C)C(F)(F)F)cc1C(F)(F)F [Example 54, N-(2-Hydroxy-2-methylpropyl)-4-((S)-2-methylpyrrolidine-1-carbonyl)-5-(4-(trifluoromethyl)-6-(((R)-1,1,1-trifluoropropan-2-yl)amino)pyridin-3-yl)thiazole-2-carboxamide] | 0.012 | 0.046 |  |  | RORγt (FL) Reporter Assay B or C, % inhibition (value marked *) (full-length human RORγt; Conditions B or C): 109* % |
| CCC(C)(C)Nc1cc(C(F)F)c(-c2sc(C(=O)NCC(C)(C)O)nc2C(=O)N2C3CCC2CC3)cn1 [Example 93, 4-((1s,4s)-7-Azabicyclo[2.2.1]heptane-7-carbonyl)-5-(4-(difluoromethyl)-6-(tert-pentylamino)pyridin-3-yl)-N-(2-hydroxy-2-methylpropyl)thiazole-2-carboxamide] | 0.0011 | 0.01 |  |  | RORγt (FL) Reporter Assay B or C, % inhibition (value marked *) (full-length human RORγt; Conditions B or C): 121* % |
| C[C@H]1CCCN1C(=O)c1nc(C(=O)NCC(C)(C)O)sc1-c1cncc(NC2CCCCC2)c1C#N [Comparator Example 2, (S)-5-(4-Cyano-5-(cyclohexylamino)pyridin-3-yl)-N-(2-hydroxy-2-methylpropyl)-4-(2-methylpyrrolidine-1-carbonyl)thiazole-2-carboxamide, reference compound] | 5.8 |  |  |  | IC50 (full-length human RORγt; HEK293T cells, read-out: RORγt (FL) Reporter Assay B or C, IC50): 3 µM |
| O=C(N[C@@H]1CC[C@H]1O)c1nc(C(=O)N2C3CCC2CC3)c(-c2cnc(N[C@@H](C3CC3)C(F)(F)F)cc2C(F)F)s1 (relative stereo) [Example 443, 4-((1s,4s)-7-Azabicyclo[2.2.1]heptane-7-carbonyl)-5-(6-(((S)-1-cyclopropyl-2,2,2-trifluoroethyl)amino)-4-(difluoromethyl)pyridin-3-yl)-N-((1R*,2R*)-2-hydroxycyclobutyl)thiazole-2-carboxamide] | 0.0022 |  | 107 | 0.016 |  |
| CC[C@H](Nc1cc(C(F)F)c(-c2sc(C(=O)N[C@@H]3COC[C@H]3O)nc2C(=O)N2C3CCC2CC3)cn1)C(F)(F)F [Example 208, 4-((1s,4s)-7-Azabicyclo[2.2.1]heptane-7-carbonyl)-5-(4-(difluoromethyl)-6-(((1S)-1-(trifluoromethyl)propyl)amino)-3-pyridyl)-N-((3R,4S)-4-hydroxytetrahydrofuran-3-yl)thiazole-2-carboxamide] | 0.0044 | 0.054 |  |  | RORγt (FL) Reporter Assay B or C, % inhibition (value marked *) (full-length human RORγt; Conditions B or C): 101* % |
| O=C(N[C@H]1COC[C@@H]1O)c1nc(C(=O)N2C3CCC2CC3)c(-c2cnc(N[C@@H](C3CC3)C(F)(F)F)cc2C(F)F)s1 [Example 417, 4-((1s,4s)-7-Azabicyclo[2.2.1]heptane-7-carbonyl)-5-[6-[[(1S)-1-cyclopropyl-2,2,2-trifluoro-ethyl]amino]-4-(difluoromethyl)-3-pyridyl]-N-[(3S,4R)-4-hydroxytetrahydrofuran-3-yl]thiazole-2-carboxamide] | 0.0024 |  |  |  | IC50 (full-length human RORγt; RORγt (FL) Reporter Assay B or C, IC50): 0.028 µM; inhibition at 1 µM (full-length human RORγt; at 1 μM compound concentration, read-out: RORγt (FL) Reporter Assay B or C, % inhibition): 94% |
| C[C@H](Nc1cc(C(F)F)c(-c2sc(C(=O)N[C@H]3CC[C@H](O)C3)nc2C(=O)N2C3CCC2CC3)cn1)C(F)(F)F [Example 411, 4-((1s,4s)-7-Azabicyclo[2.2.1]heptane-7-carbonyl)-5-[4-(difluoromethyl)-6-[[(1S)-2,2,2-trifluoro-1-methyl-ethyl]amino]-3-pyridyl]-N-[(1S,3S)-3-hydroxycyclopentyl]thiazole-2-carboxamide] | 0.0036 |  | 100 | 0.11 |  |

Continued, in another order:

| Kd [1] [µM] | IC50 (full-length human RORγt; [2]) [µM] | inhibition at 3 µM (full-length human RORγt; [3]) [%] | IC50 (full-length human RORγt; [4]) [µM] | SMILES | other results |
| --- | --- | --- | --- | --- | --- |
| 0.0043 |  | 109 | 0.034 | C[C@H](Nc1cc(C(F)F)c(-c2sc(C(=O)NC3CCOCC3)nc2C(=O)N2CCC[C@@H]2C)cn1)C(F)(F)F [Example 287, 5-(4-(Difluoromethyl)-6-(((S)-1,1,1-trifluoropropan-2-yl)amino)pyridin-3-yl)-4-((S)-2-methylpyrrolidine-1-carbonyl)-N-(tetrahydro-2H-pyran-4-yl)thiazole-2-carboxamide] |  |
| 0.00038 |  | 124 | 0.0038 | C[C@H]1CCCN1C(=O)c1nc(C(=O)NC2CCCC2O)sc1-c1cnc(NC(C)(C)C)cc1C(F)(F)F (stereo partly drawn) [Example 347, 5-[6-(tert-Butylamino)-4-(trifluoromethyl)-3-pyridyl]-N-[cis-2-hydroxycyclopentyl]-4-[(2S)-2-methylpyrrolidine-1-carbonyl]thiazole-2-carboxamide] |  |
| 0.0011 |  | 97 | 0.064 | C[C@H](Nc1cc(C(F)F)c(-c2sc(C(=O)N[C@H]3CC[C@H](O)C3)nc2C(=O)N2CC(F)(F)C[C@@H]2C)cn1)C(F)(F)F [Example 415, 4-[(2S)-4,4-Difluoro-2-methyl-pyrrolidine-1-carbonyl]-5-[4-(difluoromethyl)-6-[[(1S)-2,2,2-trifluoro-1-methyl-ethyl]amino]-3-pyridyl]-N-[(1S,3S)-3-hydroxycyclopentyl]thiazole-2-carboxamide] |  |
| 0.0017 |  | 123 | 0.02 | C[C@H]1CC(F)(F)CN1C(=O)c1nc(C(=O)N[C@H](C)C(C)(C)O)sc1-c1cnc(NC(C)(C)C)cc1C(F)F [Example 256, 5-[6-(tert-Butylamino)-4-(difluoromethyl)-3-pyridyl]-4-[(2S)-4,4-difluoro-2-methyl-pyrrolidine-1-carbonyl]-N-[(1R)-2-hydroxy-1,2-dimethyl-propyl]thiazole-2-carboxamide] |  |
| 0.0094 | 0.12 |  |  | C[C@H]1CCCN1C(=O)c1nc(C(=O)NCC(C)(C)O)sc1-c1cnc(NC2(C(F)(F)F)CC2)cc1C(F)(F)F [Example 147, (S)—N-(2-Hydroxy-2-methylpropyl)-4-(2-methylpyrrolidine-1-carbonyl)-5-(4-(trifluoromethyl)-6-((1-(trifluoromethyl)cyclopropyl)amino)pyridin-3-yl)thiazole-2-carboxamide] | RORγt (FL) Reporter Assay B or C, % inhibition (value marked ***) (full-length human RORγt; Conditions B or C): 94*** % |
| 0.012 | 0.075 |  |  | CC[C@H](Nc1cc(C(F)F)c(-c2sc(C(=O)N[C@H]3C[C@@H]3O)nc2C(=O)N2CCC[C@@H]2C)cn1)C(F)(F)F (relative stereo) [Example 214, 5-(4-(Difluoromethyl)-6-(((S)-1,1,1-trifluorobutan-2-yl)amino)pyridin-3-yl)-N-((1S*,2S*)-2-hydroxycyclopropyl)-4-((S)-2-methylpyrrolidine-1-carbonyl)thiazole-2-carboxamide] | RORγt (FL) Reporter Assay B or C, % inhibition (value marked *) (full-length human RORγt; Conditions B or C): 98* % |
| 0.00031 |  | 87 | 0.051 | C[C@H]1CC(F)(F)CN1C(=O)c1nc(C(=O)NC2CCS(=O)(=O)CC2)sc1-c1cnc(NC2(C)CCC2)cc1C(F)F [Example 328, (S)-4-(4,4-Difluoro-2-methylpyrrolidine-1-carbonyl)-5-(4-(difluoromethyl)-6-((1-methylcyclobutyl)amino)pyridin-3-yl)-N-(1,1-dioxidotetrahydro-2H-thiopyran-4-yl)thiazole-2-carboxamide] |  |
| 0.0025 |  |  | 0.0095 | C[C@H]1CC(F)(F)CN1C(=O)c1nc(C(=O)N[C@H]2C[C@H](O)C2)sc1-c1cnc(NC(C)(C)C)cc1C(F)F [Example 429, 5-(6-(tert-Butylamino)-4-(difluoromethyl)pyridin-3-yl)-4-((S)-4,4-difluoro-2-methylpyrrolidine-1-carbonyl)-N-((1r,3S)-3-hydroxycyclobutyl)thiazole-2-carboxamide] | inhibition at 0.33 µM (full-length human RORγt; at 0.33 μM compound concentration, read-out: RORγt (FL) Reporter Assay B or C, % inhibition): 113% |
| 0.00053 | 0.027 |  |  | C[C@H]1CC(F)(F)CN1C(=O)c1nc(C(=O)NCC(C)(C)O)sc1-c1cnc(NCC(C)(C)C)cc1C(F)(F)F [Example 85, (S)-4-(4,4-Difluoro-2-methylpyrrolidine-1-carbonyl)-N-(2-hydroxy-2-methylpropyl)-5-(6-(neopentylamino)-4-(trifluoromethyl)pyridin-3-yl)thiazole-2-carboxamide] | RORγt (FL) Reporter Assay B or C, % inhibition (value marked ***) (full-length human RORγt; Conditions B or C): 128*** % |
| 0.013 |  | 111 | 0.13 | C[C@H]1CCCN1C(=O)c1nc(C(=O)NC[C@H](O)CO)sc1-c1cnc(NC(C)(C)C)cc1C(F)(F)F [Example 363, 5-[6-(tert-Butylamino)-4-(trifluoromethyl)-3-pyridyl]-N-[(2S)-2,3-dihydroxypropyl]-4-[(2S)-2-methylpyrrolidine-1-carbonyl]thiazole-2-carboxamide] |  |
